{"source": "paper PMC9217999", "about": "(Targeted Oncology, 2022)", "key": {"[1]": {"test": "Cobimetinib plasma pharmacokinetics in iMATRIX-cobi", "assay_type": "in vivo, human", "details": "for Cmax: human, plasma, oral, 1 mg/kg, Steady state Cmax, geometric mean (%CV), 1.0 mg/kg suspension"}, "[2]": {"tested_on": "relapsed/refractory solid tumors with known/expected MAPK pathway involvement", "test": "Investigator-assessed anti-tumor activity in iMATRIX-cobi", "assay_type": "in vivo, human"}, "[3]": {"details": "cited from earlier work"}, "[4]": {"details": "Days 1−21 of each 28-day cycle; cited from earlier work"}, "[5]": {"tested_on": "unresectable/metastatic BRAF V600E/K-mutated melanoma", "details": "combined with vemurafenib versus vemurafenib plus placebo, p < 0.0001; cited from earlier work"}, "P-glycoprotein": {"tested_on": "P-glycoprotein", "details": "cited from earlier work"}, "[6]": {"details": "adults, similar dose; cited from earlier work"}, "[7]": {"details": "Dose escalation PN in NF1 (n = 12)"}}, "note": "Marks after values point to notes of the source that are not given here."}
{"smiles": "O=C(c1ccc(F)c(F)c1Nc1ccc(I)cc1F)N1CC(O)([C@@H]2CCCCN2)C1", "note": "[cobimetinib]", "values": [{"measurement": "Cmax", "setting": "[1]; dose escalation (n = 8)", "result": 179, "unit": "ng/mL"}, {"measurement": "Cmax", "setting": "[1]; expansion (n = 9)", "result": 116, "unit": "ng/mL"}, {"measurement": "Exposure-safety relationships", "setting": "[1]; pediatric patients", "result": "no exposure-safety relationships"}, {"measurement": "Best overall response: CR", "setting": "[2]; All LGG patients (n = 32)", "result": "0 n (%)"}, {"measurement": "Best overall response: Non-CR/Non-PD", "setting": "[2]; All LGG patients (n = 32)", "result": "1 (3) n (%)"}, {"measurement": "Best overall response: Non-evaluable", "setting": "[2]; All LGG patients (n = 32)", "result": "1 (3) n (%)"}, {"measurement": "Best overall response: Not available", "setting": "[2]; All LGG patients (n = 32)", "result": "2 (6) n (%)"}, {"measurement": "Best overall response: ORR", "setting": "[2]; All LGG patients (n = 32)", "result": "3 (9) n (%)"}, {"measurement": "Best overall response: PD", "setting": "[2]; All LGG patients (n = 32)", "result": "7 (22) n (%)"}, {"measurement": "Best overall response: PR", "setting": "[2]; All LGG patients (n = 32)", "result": "3 (9) n (%)"}, {"measurement": "Best overall response: SD", "setting": "[2]; All LGG patients (n = 32)", "result": "18 (56) n (%)"}, {"measurement": "Best overall response: CR", "setting": "[2]; Dose escalation LGG (n = 20)", "result": "0 n (%)"}, {"measurement": "Best overall response: Non-CR/Non-PD", "setting": "[2]; Dose escalation LGG (n = 20)", "result": "1 (5) n (%)"}, {"measurement": "Best overall response: Non-evaluable", "setting": "[2]; Dose escalation LGG (n = 20)", "result": "0 n (%)"}, {"measurement": "Best overall response: Not available", "setting": "[2]; Dose escalation LGG (n = 20)", "result": "2 (10) n (%)"}, {"measurement": "Best overall response: ORR", "setting": "[2]; Dose escalation LGG (n = 20)", "result": "2 (10) n (%)"}, {"measurement": "Best overall response: PD", "setting": "[2]; Dose escalation LGG (n = 20)", "result": "5 (25) n (%)"}, {"measurement": "Best overall response: PR", "setting": "[2]; Dose escalation LGG (n = 20)", "result": "2 (10) n (%)"}, {"measurement": "Best overall response: SD", "setting": "[2]; Dose escalation LGG (n = 20)", "result": "10 (50) n (%)"}, {"measurement": "Best overall response: CR", "setting": "[2]; [7]", "result": "0 n (%)"}, {"measurement": "Best overall response: Non-CR/Non-PD", "setting": "[2]; [7]", "result": "0 n (%)"}, {"measurement": "Best overall response: Non-evaluable", "setting": "[2]; [7]", "result": "0 n (%)"}, {"measurement": "Best overall response: Not available", "setting": "[2]; [7]", "result": "0 n (%)"}, {"measurement": "Best overall response: ORR", "setting": "[2]; [7]", "result": "0 n (%)"}, {"measurement": "Best overall response: PD", "setting": "[2]; [7]", "result": "0 n (%)"}, {"measurement": "Best overall response: PR", "setting": "[2]; [7]", "result": "0 n (%)"}, {"measurement": "Best overall response: SD", "setting": "[2]; [7]", "result": "12 (100) n (%)"}, {"measurement": "Best overall response: CR", "setting": "[2]; Expansion LGG (n = 12)", "result": "0 n (%)"}, {"measurement": "Best overall response: Minor response per RANO criteria", "setting": "[2]; Expansion LGG (n = 12)", "result": "1 (8)^a n (%)"}, {"measurement": "Best overall response: Non-CR/Non-PD", "setting": "[2]; Expansion LGG (n = 12)", "result": "0 n (%)"}, {"measurement": "Best overall response: Non-evaluable", "setting": "[2]; Expansion LGG (n = 12)", "result": "1 (8) n (%)"}, {"measurement": "Best overall response: Not available", "setting": "[2]; Expansion LGG (n = 12)", "result": "0 n (%)"}, {"measurement": "Best overall response: ORR", "setting": "[2]; Expansion LGG (n = 12)", "result": "1 (8) n (%)"}, {"measurement": "Best overall response: PD", "setting": "[2]; Expansion LGG (n = 12)", "result": "2 (17) n (%)"}, {"measurement": "Best overall response: PR", "setting": "[2]; Expansion LGG (n = 12)", "result": "1 (8) n (%)"}, {"measurement": "Best overall response: SD", "setting": "[2]; Expansion LGG (n = 12)", "result": "8 (67) n (%)"}, {"measurement": "Best overall response: CR", "setting": "[2]; Overall population (n = 56)", "result": "0 n (%)"}, {"measurement": "Best overall response: Non-CR/Non-PD", "setting": "[2]; Overall population (n = 56)", "result": "1 (2) n (%)"}, {"measurement": "Best overall response: Non-evaluable", "setting": "[2]; Overall population (n = 56)", "result": "2 (4) n (%)"}, {"measurement": "Best overall response: Not available", "setting": "[2]; Overall population (n = 56)", "result": "4 (7) n (%)"}, {"measurement": "Best overall response: ORR", "setting": "[2]; Overall population (n = 56)", "result": "3 (5) n (%)"}, {"measurement": "Best overall response: PR", "setting": "[2]; Overall population (n = 56)", "result": "3 (5) n (%)"}, {"measurement": "Best overall response: SD", "setting": "[2]; Overall population (n = 56)", "result": "33 (59) n (%)"}, {"measurement": "Median DoR", "setting": "[2]; in vivo", "result": "not reached"}, {"measurement": "Median duration of stable disease", "setting": "[2]; overall", "result": 11.0, "unit": "months"}, {"measurement": "Non-evaluable", "setting": "[2]; overall", "result": 4, "unit": "%"}, {"measurement": "Median OS", "setting": "[2]; overall population", "result": "not reached"}, {"measurement": "Overall response rate", "setting": "[2]; overall, 3/56, all partial responses in LGG", "result": 5.4, "unit": "%"}, {"measurement": "Partial response (PR)", "setting": "[2]; overall, 3/56 patients, all with LGG", "result": 5, "unit": "%"}, {"measurement": "Stable disease", "setting": "[2]; overall, 33/56", "result": 59, "unit": "%"}, {"measurement": "Mean accumulation ratio in adults", "setting": "[3]", "result": 2.4, "unit": "fold"}, {"measurement": "Recommended Phase II dose (RP2D) in adults", "setting": "[4]", "result": 60, "unit": "mg/day"}, {"measurement": "Investigator-assessed progression-free survival (PFS)", "setting": "[5]", "result": "significantly improved"}, {"measurement": "Objective response rate (ORR)", "setting": "[5]", "result": "significantly improved"}, {"measurement": "P-glycoprotein substrate", "setting": "P-glycoprotein", "result": "substrate of P-glycoprotein"}, {"measurement": "Cobimetinib AUC lower in healthy subjects versus cancer patients", "setting": "[6]", "result": 50, "unit": "%"}]}
